For 22 compounds, EC50 results are on record in patent US11851419B2, “GLP-1R modulating compounds” (Gilead Sciences, Inc., priority 2020, dated 2023).

Test [1] concerns the target T1, GLP-1R (Homo sapiens, UniProt P43220). Nature of the test: GLP-1R Activation - cAMP Assay 2 (cAMP increase in CHO cells stably expressing GLP-1R, pre-spotted agonists). It counts as cell-based. To be noted: assay buffer or 100% Human Plasma (not given), 30 minutes at 37° C. As to the method: GLP-1R Activation—cAMP Assay 2
GLP-1R activation by small molecule agonists is quantified by measuring cAMP increase in CHO cells stably expressing GLP-1R (MultiSpan product #C1267-1a). 50 nL of agonists are pre-spotted in a 10 point dose response onto 384-well plate (Corning product #CL3826) using the Labcyte Echo System. The cells are harvested and plated in assay buffer (HBSS (Corning product #21-023-CV) with 20 mM Hepes (Gibco product #15630-080) and 0.1% BSA (Rockland Immunochemicals product #BSA-1000)) or 100% Human Plasma (Innovative Research product #50-643-396) at 1,000 cells/well, 10 µL/well, onto the pre-spotted plates. The cells are then incubated for 30 minutes at 37° C., 5% CO2. cAMP concentration increase is then detected using Cisbio's cAMP Gs Dynamic Kit (product #62AM4PEC) according to the manufacturer's protocol. The response is plotted against the log of the agonist concentration and fitted to a sigmoidal equation to determine the EC50.

Test [2] deals with T1, GLP-1R. Nature of the test: GLP-1R Activation - cAMP Assay 1 (cAMP increase in CHO cells stably expressing GLP-1R). The format is cell-based. Conditions: 10 point dose response, 30 minutes incubation at 37° C., cAMP Gs Dynamic Kit. As to the method:
GLP-1R Activation—cAMP Assay 1
GLP-1R activation by a compound of the present disclosure was quantified by measuring cAMP increase in CHO cells stably expressing GLP-1R (MultiSpan product #C1267-1a). The cells were harvested and plated in growth medium (DMEM/F-12 (Corning product #10-090-CV) supplemented with 10% FBS (HyClone product #SH30071-03), penicillin/streptomycin (Corning product #30-002CI) and 10 µg/ml puromycin (Gibco product #A11138-03)) at 1,000 cells/well in a 384-well plate (Greiner product #781080). The cells were then incubated overnight at 37° C., 5% CO2. The next day, the medium was removed and the cells were washed with DPBS (Corning product #21-031-CM) before adding the assay medium (HBSS, Corning product #21-023-CV) with 20 mM Hepes (Gibco product #15630-080) and 0. 1% BSA (Rockland Immunochemicals product #BSA-1000)). Following the medium change, the cells were incubated for 1 hour at 37° C., 5% CO2. The tested GLP-1 compound was added to the cells in a 10 point dose response followed by a 30 minutes incubation at 37° C., 5% CO2. cAMP concentration increase was then detected using Cisbio's cAMP Gs Dynamic Kit (product #62AM4PEC) according to the manufacturer's protocol. The response was plotted against the log of the agonist concentration and fitted to a sigmoidal equation to determine the EC50.

T1 sequence (P43220 24-463): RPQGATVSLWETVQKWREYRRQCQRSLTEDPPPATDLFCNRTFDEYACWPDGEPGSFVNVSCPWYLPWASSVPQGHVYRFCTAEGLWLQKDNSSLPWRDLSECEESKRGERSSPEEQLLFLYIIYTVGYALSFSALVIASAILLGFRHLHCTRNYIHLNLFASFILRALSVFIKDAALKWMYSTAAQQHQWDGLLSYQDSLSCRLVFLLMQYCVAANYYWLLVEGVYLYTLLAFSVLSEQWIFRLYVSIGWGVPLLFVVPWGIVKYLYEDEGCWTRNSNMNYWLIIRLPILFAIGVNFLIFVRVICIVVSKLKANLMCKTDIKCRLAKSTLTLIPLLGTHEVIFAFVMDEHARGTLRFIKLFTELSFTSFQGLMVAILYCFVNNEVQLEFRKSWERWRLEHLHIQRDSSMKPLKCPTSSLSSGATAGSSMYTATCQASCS

`COCCn1c(CN2CCC(c3cccc(OCc4ccc(C#N)cc4F)n3)CC2)nc2c(F)c(Nc3ccccc3)c(C(=O)O)cc21` [Example 1, 2-((4-(6-((4-cyano-2-fluorobenzyl)oxy)pyridin-2-yl)piperidin-1-yl)methyl)-4-fluoro-1-(2-methoxyethyl)-5-(phenylamino)-1H-benzo[d]imidazole-6-carboxylic acid]: at GLP-1R [1], the response was half-maximal at 15.1 nM (EC50).

On GLP-1R [1], `COCCn1c(CN2CCC(c3cccc(OCc4ccc(C(N)=O)cc4F)n3)CC2)nc2c(F)c(Nc3ccccc3)c(C(=O)O)cc21` [Example 2, 2-((4-(6-((4-carbamoyl-2-fluorobenzyl)oxy)pyridin-2-yl)piperidin-1-yl)methyl)-4-fluoro-1-(2-methoxyethyl)-5-(phenylamino)-1H-benzo[d]imidazole-6-carboxylic Acid] registered a concentration giving a half-maximal response (EC50) of 175 nM.

In turn, `COCCn1c(CN2CCN(c3cccc(OCc4ccc(C#N)cc4F)n3)CC2)nc2c(F)c(Nc3ccccc3)c(C(=O)O)cc21` [Example 3, 2-((4-(6-((4-cyano-2-fluorobenzyl)oxy)pyridin-2-yl)piperazin-1-yl)methyl)-4-fluoro-1-(2-methoxyethyl)-5-(phenylamino)-1H-benzo[d]imidazole-6-carboxylic acid] displayed a concentration giving a half-maximal response (EC50) on GLP-1R [1] of 1.9 nM.

`Cn1ccc(-c2cc(C(=O)O)cc3c2nc(CN2CCC(c4ccnc(OCc5ccc(C#N)cc5F)n4)CC2)n3C[C@@H]2CCO2)n1` [Example 4, (S)-2-((4-(2-((4-cyano-2-fluorobenzyl)oxy)pyrimidin-4-yl)piperidin-1-yl)methyl)-4-(1-methyl-1H-pyrazol-3-yl)-1-(oxetan-2-ylmethyl)-1H-benzo[d]imidazole-6-carboxylic Acid] displayed an EC50 at GLP-1R [1] of 1.2 nM.

As to `N#Cc1ccc(COc2cccc(C3CCN(Cc4nc5c(-c6ccccn6)cc(C(=O)O)cc5n4C[C@@H]4CCO4)CC3)n2)c(F)c1` [Example 5, Methyl 2-[[4-[6-[(4-cyano-2-fluoro-phenyl)methoxy]-2-pyridyl]-1-piperidyl]methyl]-3-[[(2S)-oxetan-2-yl]methyl]-7-(2-pyridyl)benzimidazole-5-carboxylic Acid], at GLP-1R [1], the 50% effective concentration (EC50) stood at 9.8 nM.

On to `N#Cc1ccc(COc2cccc(N3CCN(Cc4nc5c(-c6ccccn6)cc(C(=O)O)cc5n4C[C@@H]4CCO4)CC3)n2)c(F)c1` [Example 6], for which it took 2.6 nM to reach a half-maximal effect at GLP-1R [1] (EC50).

In the case of `CC(C)(O)C#Cc1cc(C(=O)O)cc2c1nc(CN1CCN(c3cccc(OCc4ccc(C#N)cc4F)n3)CC1)n2C[C@@H]1CCO1` [Example 11, 2-[[4-[6-[(4-cyano-2-fluoro-phenyl)methoxy]-2-pyridyl]piperazin-1-yl]methyl]-7-(3-hydroxy-3-methyl-but-1-ynyl)-3-[[(2S)-oxetan-2-yl]methyl]benzimidazole-5-carboxylic Acid], the EC50 at GLP-1R [1] was 1.7 nM.

`CC(C)(O)C#Cc1cc(C(=O)O)cc2c1nc(CN1CCC(c3cccc(OCc4ccc(C#N)cc4F)n3)CC1)n2C[C@@H]1CCO1` [Example 12] registered an EC50 on GLP-1R [1] of 0.81 nM.

`CC(C)(O)C#Cc1cc(C(=O)O)cc2c1nc(CN1CCN(c3cccc(OCc4ccc(C(N)=O)cc4F)n3)CC1)n2C[C@@H]1CCO1` [Example 13, 2-[[4-[6-[(4-carbamoyl-2-fluoro-phenyl)methoxy]-2-pyridyl]piperazin-1-yl]methyl]-7-(3-hydroxy-3-methyl-but-1-ynyl)-3-[[(2S)-oxetan-2-yl]methyl]benzimidazole-5-carboxylic Acid] yielded an EC50 on GLP-1R [1] of 31.9 nM.

For the compound `COCCn1c(CN2CCC(c3cccc(OCc4ccc(C#N)cc4F)n3)CC2)nc2c(F)cc(C(=O)O)cc21` [Example 14, 2-[[4-[6-[(4-cyano-2-fluoro-phenyl)methoxy]-2-pyridyl]-1-piperidyl]methyl]-7-fluoro-3-(2-methoxyethyl)benzimidazole-5-carboxylic Acid], on GLP-1R [2], a half-maximal effect (EC50) was put at 1.04 nM.

`CC(C)(O)C#Cc1cc2nc(CN3CCC(c4cccc(OCc5ccc(C#N)cc5F)n4)CC3)n(C[C@@H]3CCO3)c2cc1C(=O)O` [Example 16, (S)-2-((4-(6-((4-cyano-2-fluorobenzyl)oxy)pyridin-2-yl)piperidin-1-yl)methyl)-5-(3-hydroxy-3-methylbut-1-yn-1-yl)-1-(oxetan-2-ylmethyl)-1H-benzo[d]imidazole-6-carboxylic Acid] had a half-maximal effective concentration (EC50) on GLP-1R [1] of 28.8 nM.

`Cn1cc(-c2cc3nc(CN4CCC(c5cccc(OCc6ccc(C#N)cc6F)n5)CC4)n(C[C@@H]4CCO4)c3cc2C(=O)O)cn1` [Example 17, (S)-2-((4-(6-((4-cyano-2-fluorobenzyl)oxy)pyridin-2-yl)piperidin-1-yl)methyl)-5-(1-methyl-1H-pyrazol-4-yl)-1-(oxetan-2-ylmethyl)-1H-benzo[d]imidazole-6-carboxylic Acid]: the EC50 at GLP-1R [1] stood at 13.3 nM.

`Cn1ccc(-c2cc(C(=O)O)cc3c2nc(CN2CCC(c4cccc(OCc5ccc(C#N)cc5F)n4)CC2)n3C[C@@H]2CCO2)n1` [Example 18, 2-[[4-[6-[(4-cyano-2-fluoro-phenyl)methoxy]-2-pyridyl]-1-piperidyl]methyl]-7-(1-methylpyrazol-3-yl)-3-[[(2S)-oxetan-2-yl]methyl]benzimidazole-5-carboxylic Acid] gave an EC50 on GLP-1R [1] of 0.98 nM.

Consider `Cn1ccc(-c2cc(C(=O)O)cc3c2nc(CN2CCN(c4cccc(OCc5ccc(C#N)cc5F)n4)CC2)n3C[C@@H]2CCO2)n1` [Example 19, 2-[[4-[6-[(4-cyano-2-fluoro-phenyl)methoxy]-2-pyridyl]piperazin-1-yl]methyl]-7-(1-methylpyrazol-3-yl)-3-[[(2S)-oxetan-2-yl]methyl]benzimidazole-5-carboxylic Acid], for which, at GLP-1R [1], the midpoint of the response, the EC50, lay at 0.3 nM.

`N#Cc1ccc(COc2nc(C3CCN(Cc4nc5c(F)cc(C(=O)O)cc5n4C[C@@H]4CCO4)CC3)ccc2F)c(F)c1` [Example 20, 2-[[4-[6-[(4-cyano-2-fluoro-phenyl)methoxy]-5-fluoro-2-pyridyl]-1-piperidyl]methyl]-7-fluoro-3-[[(2S)-oxetan-2-yl]methyl]benzimidazole-5-carboxylic Acid]: the midpoint of the response at GLP-1R [1], the EC50, lay at 0.07 nM.

`N#Cc1ccc(COc2cccc(C3CCN(Cc4nc5c(F)cc(C(=O)O)cc5n4C[C@@H]4CCO4)CC3)n2)c(F)c1` [Example 21] showed a 50% effective concentration (EC50) at GLP-1R [1] of 0.038 nM.

On to `N#Cc1ccc(COc2nc(N3CCN(Cc4nc5c(F)cc(C(=O)O)cc5n4C[C@@H]4CCO4)CC3)ccc2F)c(F)c1` [Example 22, 2-[[4-[6-[(4-cyano-2-fluoro-phenyl)methoxy]-5-fluoro-2-pyridyl]piperazin-1-yl]methyl]-7-fluoro-3-[[(2S)-oxetan-2-yl]methyl]benzimidazole-5-carboxylic Acid], for which, at GLP-1R [1], the 50% effective concentration (EC50) is 0.22 nM.

`N#Cc1ccc(COc2cccc(N3CCN(Cc4nc5c(F)cc(C(=O)O)cc5n4C[C@@H]4CCO4)CC3)n2)c(F)c1` [Example 23] yielded a concentration for a half-maximal effect (EC50) on GLP-1R [1] of 0.031 nM.

Compound `CC(C)(C)OC(=O)Nc1cc2nc(CN3CCC(c4cccc(OCc5ccc(C#N)cc5F)n4)CC3)n(C[C@@H]3CCO3)c2cc1C(=O)O` [Example 24, 6-(tert-butoxycarbonylamino)-2-[[4-[6-[(4-cyano-2-fluoro-phenyl)methoxy]-2-pyridyl]-1-piperidyl]methyl]-3-[[(2S)-oxetan-2-yl]methyl]benzimidazole-5-carboxylic Acid] had an EC50 at GLP-1R [1] of 0.51 nM.

`Cn1ccc(-c2cc3nc(CN4CCC(c5cccc(OCc6ccc(C#N)cc6F)n5)CC4)n(C[C@@H]4CCO4)c3cc2C(=O)O)n1` [Example 30, 2-[[4-[6-[(4-cyano-2-fluoro-phenyl)methoxy]-2-pyridyl]-1-piperidyl]methyl]-6-(1-methylpyrazol-3-yl)-3-[[(2S)-oxetan-2-yl]methyl]benzimidazole-5-carboxylic Acid] showed an EC50 on GLP-1R [1] of 52.2 nM.

On GLP-1R [1], `COCCn1c(C[C@H]2CC[C@@H](c3cccc(OCc4ccc(C#N)cc4F)n3)CC2)nc2c(-c3ccn(C)n3)cc(C(=O)O)cc21` [Example 31, 2-(((1s,4s)-4-(6-((4-cyano-2-fluorobenzyl)oxy)pyridin-2-yl)cyclohexyl)methyl)-1-(2-methoxyethyl)-4-(1-methyl-1H-pyrazol-3-yl)-1H-benzo[d]imidazole-6-carboxylic Acid] showed a 50% effective concentration (EC50) of 134 nM.

As to `COCCn1c(C[C@H]2CC[C@H](c3cccc(OCc4ccc(C#N)cc4F)n3)CC2)nc2c(-c3ccn(C)n3)cc(C(=O)O)cc21` [Example 32, 2-(((1r,4r)-4-(6-((4-cyano-2-fluorobenzyl)oxy)pyridin-2-yl)cyclohexyl)methyl)-1-(2-methoxyethyl)-4-(1-methyl-1H-pyrazol-3-yl)-1H-benzo[d]imidazole-6-carboxylic Acid], at GLP-1R [1], the EC50 is 10.6 nM.
